Measured values from patent US20110183942A1, “Methods and Compositions for Treating Alzheimer's Disease” (UNIVERSITY OF MEDICINE AND DENTISTRY OF NEW JERSEY, priority 2008, published 2011).

Tests used:
[1] = tested on: hippocampal Schaffer collateral-CA1 synapses; test: Field recording of fEPSP (mGluR-LTD) in acute hippocampal slices; type: cell-based, mouse; conditions: for DHPG-LTD (fEPSP slope): t=75 min
Experimental: For recording, slices were placed in a submersion recording chamber and perfused with 30° C. ACSF at a rate of 2 ml/min.
fEPSPs were recorded with extracellular recording electrodes (1.0 MΩ) filled with ACSF and placed in the stratum radiatum of area CA1. Synaptic responses were evoked by a 200-μsec current pulse to Schaffer collateral axons with a concentric bipolar tungsten stimulating electrode. Stable baseline responses were collected every 30 sec by using a stimulation intensity (10-30 μA) yielding 50-60% of the maximal fEPSP slope response.
mGluR-LTD was induced by a mGluR1/5 agonist, (R,S)-3,5-DHPG (Tocris), or by electrical stimulations. […] NMDAR dependent-LTD was induced by using 900 single pulses delivered at 1 Hz.

[2] = tested on: global protein synthesis in cultured neurons; test: Metabolic labeling, incorporation of 35S methionine and cysteine into TCA precipitant; type: cell-based
Experimental: To measure the incorporation of ^35S methionine and cysteine into new peptide, 30 μl protein labeling mix (Perkin Elmer) was added into 1.5 ml of regular culture medium (final 220 μCi/ml) for the time indicated in the figures. After washout once with ice-cold PBS, cells were lysed with 700 μl of RIPA buffer. After quantification of total amount of protein, equal amount of lysate (˜200 μl) was precipitated with 10% TCA.

[3] = tested on: GluR1-containing AMPA receptors in primary hippocampal neurons; test: AMPA receptor trafficking (surface and internalized GluR1 labeling); type: cell-based, mouse
Experimental: (§1) Labeling of surface or internalized pool of AMPA receptor was performed as described with minor modifications (Shepherd, et al., Neuron, 52, 475-484 (2006)). Briefly, surface GluR1-containing AMPA receptors were then labeled by adding 2.5 μg of GluR1-N JH1816 pAb to the neuronal growth media and were subsequently incubated at 37° C. for 15 or 60 minutes after 5 min DHPG application. To visualize surface and internalized GluR1, Alexa 555 secondary was added in excess live at 10° C. Neurons were fixed, permeabilized and subsequently exposed to Alexa 488 secondary to stain internalized receptors (background in the non-permeabilized control was negligible).
as §1, with “DIV 14-21 mouse primary hippocampal cultures were incubated in neuronal growth media containing 50 μMDHPG for 5 minutes and then washed” for “Labeling of surface or internalized pool of AMPA receptor was performed as described”, “new growth media. Surface” for “minor modifications (Shepherd, et al., Neuron, 52, 475-484 (2006)). Briefly, surface”
Quantification of surface GluR1 puncta was carried out using Image J software. Images were acquired as multi-channel TIFF files with a dynamic range of 4096 gray levels (12-bit binary; MultiTrack acquisition for confocal) using metamorph software on a Zeiss LSM 510 confocal microscope. To measure punctate structures neurons were thresholded by gray value at a level close to 50% of the dynamic range. Background noise from these images was negligible. All puncta were treated as individual objects and the characteristics of each, such as area and average fluorescence, were logged measured. The Data reflected in FIGS. 1B-C was an example of one representative experiment. The total intensity of GluR1 levels were normalized to control, untreated neurons at 60 min. Significance was determined by a paired Student's t-test.

phospho-eEF2 = test: Phospho-eEF2 in hippocampal slices (immunohistochemistry, Western blot); type: cell-based, mouse; conditions: WT hippocampal slices, DHPG 50 μM, 5 min
Experimental: Transfected HEK293T cells or cultured neurons were treated with various drugs and then harvested in IP buffer supplemented with 1% Triton X-100 buffer and Complete™ EDTA-Free protease inhibitors. Soluble fractions were diluted with 4× SDS sample buffer.
Samples were separated electrophoretically using NuPAGE 4-12% Bis-Tris gels (Invitrogen) and transferred to an Immobilon-P PVDF membrane (Millipore). The membrane was blocked with TBST (50 mM Tris, pH 7.5, with 150 mM NaCl, and 0.1% Tween-20) containing 5% non-fat milk for one hour at room temperature, followed by incubation with primary antibody in TBST buffer overnight at 4° C. After three washes with TBST buffer, membranes were incubated with HRP-conjugated anti-rabbit, or anti-mouse antibody in TBST for another hour. After three washes with TBST buffer, the membrane was treated with SuperSignal ECL substrate (Pierce) according to the manufacturer's protocol.
Immunohistochemistry of phospho-eEF2 in WT and eEF2K mice was performed as described (Ramirez-Amaya et al., J. Neurosci. 25, 1761-1768 (2005)) with slight modifications. […] The signals were visualized using the cyanine 3 (CY3) TSA fluorescence system (PerkinElmer Life Sciences), and the nuclei were stained with DAPI (Molecular Probes). No staining was detected in the absence of the primary or secondary antibodies. No phospho-eEF2 signal was detected in eEF2K KO sections.

eEF2K-mGluR5 interaction = molecular target: T1, eEF2K-mGluR5 interaction (Mus musculus, UniProt Q3UVX5); test: Co-immunoprecipitation of mGluR5 with eEF2K in synaptoneurosomes; conditions: WT forebrain synaptoneurosomes, DHPG 20 min
T1 construct: confirmed that native mGluR5 associated with eEF2K; from tissue; host or cells: mouse forebrain synaptoneurosomes
T1 sequence (Q3UVX5 21-1203 limits assumed): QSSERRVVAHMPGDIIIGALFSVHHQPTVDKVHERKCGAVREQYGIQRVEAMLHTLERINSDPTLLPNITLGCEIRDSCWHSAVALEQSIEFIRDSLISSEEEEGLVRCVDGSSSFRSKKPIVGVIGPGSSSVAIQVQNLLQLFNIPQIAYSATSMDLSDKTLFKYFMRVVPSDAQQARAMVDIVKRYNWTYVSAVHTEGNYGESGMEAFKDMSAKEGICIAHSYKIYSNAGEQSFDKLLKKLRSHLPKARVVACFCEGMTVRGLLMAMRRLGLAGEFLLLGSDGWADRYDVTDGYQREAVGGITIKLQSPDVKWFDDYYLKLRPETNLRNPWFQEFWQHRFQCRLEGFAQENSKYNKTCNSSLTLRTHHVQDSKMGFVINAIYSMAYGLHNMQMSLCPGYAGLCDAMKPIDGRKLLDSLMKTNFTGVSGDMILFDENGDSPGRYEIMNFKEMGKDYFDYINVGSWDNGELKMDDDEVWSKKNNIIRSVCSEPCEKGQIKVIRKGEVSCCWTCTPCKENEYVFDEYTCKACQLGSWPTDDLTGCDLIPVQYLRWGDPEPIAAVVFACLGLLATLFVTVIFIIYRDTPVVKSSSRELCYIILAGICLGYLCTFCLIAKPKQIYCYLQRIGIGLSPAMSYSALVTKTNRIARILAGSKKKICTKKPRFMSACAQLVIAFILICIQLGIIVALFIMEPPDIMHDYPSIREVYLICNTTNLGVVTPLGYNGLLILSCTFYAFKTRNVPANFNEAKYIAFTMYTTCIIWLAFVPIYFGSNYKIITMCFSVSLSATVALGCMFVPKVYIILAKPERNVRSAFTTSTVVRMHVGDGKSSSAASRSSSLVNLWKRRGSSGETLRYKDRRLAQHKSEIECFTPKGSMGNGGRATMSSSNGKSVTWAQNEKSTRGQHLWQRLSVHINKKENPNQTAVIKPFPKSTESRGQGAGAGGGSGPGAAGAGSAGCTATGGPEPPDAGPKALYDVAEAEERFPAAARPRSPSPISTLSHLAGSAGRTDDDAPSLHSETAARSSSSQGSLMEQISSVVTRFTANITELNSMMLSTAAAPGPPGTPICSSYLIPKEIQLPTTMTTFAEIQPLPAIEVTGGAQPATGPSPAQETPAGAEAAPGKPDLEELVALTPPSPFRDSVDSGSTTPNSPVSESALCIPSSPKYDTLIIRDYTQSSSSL

internalized GluR1 ([3]; Arc KO neurons, after DHPG): did not exhibit changes | surface GluR1 ([3]; Arc KO neurons, after DHPG): did not exhibit any changes | internalized GluR1 ([3]; WT cultures, 15 min after 5 min DHPG): increase of internalized GluR1 | surface GluR1 ([3]; WT hippocampal cultures, 15 min and 60 min after 5 min DHPG): loss of surface GluR1 | co-IP of mGluR5 with eEF2K (eEF2K-mGluR5 interaction): decreased the co-IP of mGluR5
Compound: NC(C(=O)O)c1cc(O)cc(O)c1 (racemic) [DHPG, (R,S)-3,5-DHPG]
fEPSP slope after DHPG ([1]; Arc KO slices, DHPG 50 μM 5 min, t=70 min): 92.1±3.7 % of baseline | fEPSP slope after DHPG ([1]; Arc KO slices, DHPG 100 μM 5 min, t=90 min): 88.5±7.4 % of baseline | DHPG-LTD (fEPSP slope) ([1]; Arc/Fmr1 DKO slices, DHPG 50 μM 5 min): 85.9±4.1 % of baseline | DHPG-LTD (fEPSP slope) ([1]; FVB WT slices, DHPG 50 μM 5 min): 73.0±6.6 % of baseline | DHPG-LTD (fEPSP slope) ([1]; Fmr1 KO slices, DHPG 50 μM 5 min): 68.2±2.6 % of baseline | fEPSP slope after DHPG ([1]; WT slices (littermates of Arc KO), DHPG 50 μM 5 min, t=70 min): 72.8±2.0 % of baseline | fEPSP slope after DHPG ([1]; WT slices (littermates of eEF2K KO), DHPG 50 μM 5 min, t=90 min): 64.7±5.2 % of baseline | fEPSP slope after DHPG ([1]; WT slices, DHPG 100 μM 5 min, t=90 min): 64.4±2.6 % of baseline | fEPSP slope after DHPG ([1]; eEF2K KO slices, DHPG 50 μM 5 min, t=90 min): 108.7±3.6 % of baseline | global protein synthesis compared to untreated control ([2]; pretreatment of DHPG (30 min before harvest for 5 min)): 1.080±0.036 | global protein synthesis compared to untreated control ([2]; simultaneous treatment of DHPG for 5 min): 0.926±0.017 | phospho-eEF2 level (phospho-eEF2): dramatically increased
